Where “and” joins values, the source holds several entries; their conditions need not be identical. Equal values may be shown once.
Tests used:
[1] = target: T1, α1b-AR (Homo sapiens, UniProt P35368); assay: α1-adrenergic receptor radio-ligand (125I-HEAT) binding assay, α1b subtype; conditions: COS-7 cell membranes transfected with α1b subtype, 125I-HEAT 50 pM
T1 construct: expressed in transfected cells; host or cells: COS-7 (African Green monkey kidney) cell membranes
T1 sequence (P35368 1-520): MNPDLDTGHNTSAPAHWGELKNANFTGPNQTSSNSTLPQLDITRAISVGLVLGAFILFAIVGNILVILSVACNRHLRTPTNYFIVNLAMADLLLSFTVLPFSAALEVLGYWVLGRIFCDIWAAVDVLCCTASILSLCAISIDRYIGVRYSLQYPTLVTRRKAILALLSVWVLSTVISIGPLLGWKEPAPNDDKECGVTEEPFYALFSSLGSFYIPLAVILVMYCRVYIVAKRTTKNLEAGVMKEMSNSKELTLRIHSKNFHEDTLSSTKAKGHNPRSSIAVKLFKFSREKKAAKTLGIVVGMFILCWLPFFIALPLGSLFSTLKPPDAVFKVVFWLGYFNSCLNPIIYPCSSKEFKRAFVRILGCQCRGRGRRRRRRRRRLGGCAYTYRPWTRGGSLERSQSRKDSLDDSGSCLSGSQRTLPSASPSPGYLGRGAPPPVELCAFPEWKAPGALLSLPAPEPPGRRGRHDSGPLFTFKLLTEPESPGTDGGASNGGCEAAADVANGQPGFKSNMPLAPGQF
Procedure: (§1) α1-Adrenergic Receptor Binding Assay
(§2) Preparation of COS Cell Membranes
(§3) Membranes were prepared from COS-7 cells (African Green monkey kidney SV40-transformed cells) that had been transfected with one of the three α1-AR subtypes (Genbank accession number for the α1a subtype: AF013261; Genbank accession number for the α1b subtype: NM000679; Genbank accession number for the α1d subtype: NM000678) using the following method: COS cells from ten 100 mm tissue culture plates were scraped into a 5 mL volume of TE (a mixture of 50 mM Tris-HCl, 5 mM EDTA, pH 7.4). The cell suspension was disrupted with a Brinkman Polytron (at a setting of 8) for 10 sec. The disrupted cells were centrifuged at 1000×g for 10 min at 4° C. Supernatants were centrifuged at 34,500×g for 20 min at 4° C. The membrane pellets were suspended in a 2 mL volume of TNE (a mixture of 50 mM Tris-HCl, 5 mM EDTA and 150 mM NaCl at pH 7.4). An aliquot of the membrane suspension was stored at −70° C. until use. The protein concentration was determined using the BioRad “DC” protein assay kit following membrane solubilization with Triton X-100.
(§4) Radio-Ligand Binding Assay
Triplicate determinations of radio-ligand binding in the presence of increasing concentrations of testing compound were made. The reagents were added to 96-well polypropylene plate wells. Each assay well contained 140 μL TNE, 25 μL ^125I-2-(β-4-hydroxyphenyl)ethylaminomethyltetralone (^125I-HEAT) (specific activity 2200 Ci/mmol, Dupont-New England Nuclear, 50 pM final), 10 μL testing compound dissolved in dimethyl sulfoxide (DMSO) (1 pM to 10 μM in half-log increments, final), and 25 μL appropriate α1-AR membrane subtype suspension in TNE (0.5 ng/μL for the α1a and α1b subtypes and 13 ng/μL for the α1d subtype). The plate was incubated at rt for 1 hr. The contents of the wells were filtered through a glass filter (type C) (GF/C) membrane Unifilter plate (Packard Instruments) using the Packard Filtermate cell harvester. The filter plates were dried in a vacuum oven for 30 min at 40° C. 25 μL Microscint 20 liquid scintillation fluid (Packard Instuments) was added to each well. The radioactive content was analyzed in the TopCount microplate scintillation counter (Packard Instruments).
The Ki values (in nM) shown in Table 1 were determined using GraphPad Prism software.

[2] = target: T2, α1d-AR (Homo sapiens, UniProt P25100); assay: α1-adrenergic receptor radio-ligand (125I-HEAT) binding assay, α1d subtype; conditions: COS-7 cell membranes transfected with α1d subtype, 125I-HEAT 50 pM
T2 construct: expressed in transfected cells; host or cells: COS-7 (African Green monkey kidney) cell membranes
T2 sequence (P25100 1-572): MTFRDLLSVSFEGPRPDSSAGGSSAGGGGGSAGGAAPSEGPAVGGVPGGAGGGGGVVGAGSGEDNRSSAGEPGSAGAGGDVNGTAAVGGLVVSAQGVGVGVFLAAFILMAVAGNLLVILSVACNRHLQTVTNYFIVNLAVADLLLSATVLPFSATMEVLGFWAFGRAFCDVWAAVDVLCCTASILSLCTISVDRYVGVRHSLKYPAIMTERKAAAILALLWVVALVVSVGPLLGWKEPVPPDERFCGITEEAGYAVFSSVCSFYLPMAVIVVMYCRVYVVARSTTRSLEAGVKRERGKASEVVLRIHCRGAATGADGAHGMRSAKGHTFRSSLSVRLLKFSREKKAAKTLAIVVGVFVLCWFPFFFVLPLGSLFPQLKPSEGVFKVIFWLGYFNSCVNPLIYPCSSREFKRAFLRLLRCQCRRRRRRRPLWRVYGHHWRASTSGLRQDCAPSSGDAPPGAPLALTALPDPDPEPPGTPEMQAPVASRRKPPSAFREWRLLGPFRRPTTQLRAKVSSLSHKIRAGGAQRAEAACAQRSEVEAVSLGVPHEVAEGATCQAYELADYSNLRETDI
Procedure: as §1, §2, §3, §4
(§5) Triplicate determinations of radio-ligand binding in the presence of increasing concentrations of testing compound were made. The reagents were added to 96-well polypropylene plate wells. […] The plate was incubated at rt for 1 hr. The contents of the wells were filtered through a glass filter (type C) (GF/C) membrane Unifilter plate (Packard Instruments) using the Packard Filtermate cell harvester. The filter plates were dried in a vacuum oven for 30 min at 40° C. 25 μL Microscint 20 liquid scintillation fluid (Packard Instuments) was added to each well. The radioactive content was analyzed in the TopCount microplate scintillation counter (Packard Instruments).

[3] = target: T3, α1a-AR (Homo sapiens, UniProt P35348); assay: α1-adrenergic receptor radio-ligand (125I-HEAT) binding assay, α1a subtype; conditions: COS-7 cell membranes transfected with α1a subtype, 125I-HEAT 50 pM
T3 construct: expressed in transfected cells; host or cells: COS-7 (African Green monkey kidney) cell membranes
T3 sequence (P35348 1-455 isoform P35348-4): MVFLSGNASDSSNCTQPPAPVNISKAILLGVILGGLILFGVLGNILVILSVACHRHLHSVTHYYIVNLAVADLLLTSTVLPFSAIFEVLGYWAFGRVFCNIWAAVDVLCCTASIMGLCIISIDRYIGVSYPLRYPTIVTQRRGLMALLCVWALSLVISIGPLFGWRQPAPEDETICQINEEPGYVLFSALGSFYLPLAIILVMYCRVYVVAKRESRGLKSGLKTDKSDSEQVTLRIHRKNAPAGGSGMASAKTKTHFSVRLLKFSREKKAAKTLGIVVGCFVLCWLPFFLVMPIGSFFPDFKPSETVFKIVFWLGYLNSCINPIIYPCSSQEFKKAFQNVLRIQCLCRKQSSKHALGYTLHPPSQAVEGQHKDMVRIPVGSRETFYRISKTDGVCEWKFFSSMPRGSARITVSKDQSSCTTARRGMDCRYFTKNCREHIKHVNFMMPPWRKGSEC
Procedure: as §1, §2, §3, §4, §5

[4] = system: α1a and α1d subtypes over the α1b subtype; conditions: cited from earlier work

| Ki [1] | Ki [2] | Ki [3] | SMILES | selectivity for the α1a and α1d subtypes over the α1b subtype [4] |
| --- | --- | --- | --- | --- |
| 16 nM and 14 nM | 0.27 nM and 0.13 nM | 0.58 nM and 3 nM | CC(C)Oc1ccccc1N1CCN(C2CCC(N3C(=O)c4ccc5ccccc5c4C3=O)CC2)CC1 (mixture of isomers) [Cpd 7, 2-{4-[4-(2-isopropoxy-phenyl)-piperazin-1-yl]-cyclohexyl}-benzo[e]isoindole-1,3-dione] |  |
| 22.4 nM | 0.77 nM | 0.43 nM | CC(C)Oc1ccccc1N1CCN(C2CCC(N3C(=O)c4ccncc4C3=O)CC2)CC1 (mixture of isomers) [Cpd 6, 2-{4-[4-(2-isopropoxy-phenyl)-piperazin-1-yl]-cyclohexyl}-pyrrolo[3,4-c]pyridine-1,3-dione] |  |
| 35 nM and 58 nM | 0.61 nM and 0.3 nM | 1.9 nM and 5.9 nM | CC(C)Oc1ccccc1N1CCN([C@H]2CC[C@H](N3C(=O)c4ccc5ccc(F)cc5c4C3=O)CC2)CC1 [Cpd 9, 8-fluoro-r-2-{t-4-[4-(2-isopropoxy-phenyl)-piperazin-1-yl]-cyclohexyl}-benzo[e]isoindole-1,3-dione] |  |
| 269 nM | 16.4 nM | 15 nM | CC(C)Oc1ccccc1N1CCN([C@H]2CC[C@@H](N3C(=O)c4ccc5ccc(F)cc5c4C3=O)CC2)CC1 [Cpd 8, 8-fluoro-r-2-{c-4-[4-(2-isopropoxy-phenyl)-piperazin-1-yl]-cyclohexyl}-benzo[e]isoindole-1,3-dione] |  |
| 44.6 nM | 1.45 nM | 0.75 nM | CC(C)Oc1ccccc1N1CCN(C2CCC(N3C(=O)c4cccnc4C3=O)CC2)CC1 (mixture of isomers) [Cpd 5, 6-{4-[4-(2-isopropoxy-phenyl)-piperazin-1-yl]-cyclohexyl}-pyrrolo[3,4-b]pyridine-5,7-dione] |  |

The next lines start with the molecule.

| SMILES | Ki [1] | Ki [2] | Ki [3] | selectivity for the α1a and α1d subtypes over the α1b subtype [4] |
| --- | --- | --- | --- | --- |
| CC(C)Oc1ccccc1N1CCN(C2CCC(N3C(=O)c4c(F)c(F)c(F)c(F)c4C3=O)CC2)CC1 (mixture of isomers) [Cpd 1, 4,5,6,7-tetrafluoro-2-{4-[4-(2-isopropoxy-phenyl)-piperazin-1-yl]-cyclohexyl}-isoindole-1,3-dione] | 4110 nM | 30.2 nM | 37.8 nM |  |
| CCOc1ccccc1OCCN[C@H](C)Cc1ccc(OC)c(S(N)(=O)=O)c1 [Tamsulosin] |  |  |  | about 15 fold |
| CC(C)Oc1ccccc1N1CCN(C2CCC(N3C(=O)c4cc(Cl)c(Cl)cc4C3=O)CC2)CC1 (mixture of isomers) [Cpd 2, 5,6-dichloro-2-{4-[4-(2-isopropoxy-phenyl)-piperazin-1-yl]-cyclohexyl}-isoindole-1,3-dione] | 1080 nM | 0.31 nM | 2.69 nM |  |
| CC(C)Oc1ccccc1N1CCN([C@H]2CC[C@@H](N3C(=O)c4cccc(F)c4C3=O)CC2)CC1 [Cpd 4, 4-fluoro-r-2-{c-4-[4-(2-isopropoxy-phenyl)-piperazin-1-yl]-cyclohexyl}-isoindole-1,3-dione] | 164 nM and 129 nM and 88 nM | 3.24 nM and 13.5 nM and 28 nM | 0.873 nM and 1.1 nM and 0.95 nM |  |
| CC(C)Oc1ccccc1N1CCN([C@H]2CC[C@H](N3C(=O)c4cccc(F)c4C3=O)CC2)CC1 [Cpd 3, 4-fluoro-r-2-{t-4-[4-(2-isopropoxy-phenyl)-piperazin-1-yl]-cyclohexyl}-isoindole-1,3-dione] | 17.9 nM | 0.09 nM | 0.2 nM |  |
